Test results: patent publication US6740523B2 (priority 1997, dated 2004)

Assays:
[1] = system: σ expression in HCT116 and other CRC cell lines; test: Northern blot of σ expression following adriamycin treatment; type: cell-based, human; conditions: 0.2 ug/ml adriamycin
Procedure: (FIG. 1B) σ Expression following adriamycin treatment. Seven different CRC cell lines were treated with 0.2 ug/ml adriamycin (+) or vehicle (−) as indicated. RNA was prepared 24 hours following adriamycin treatment. Autoradiographs of Northern blots performed with σ, p21 and EF1 probes are shown. The p53 status of the respective cell lines is indicated on the top.
Northern blotting with a radiolabeled probe generated from σ cDNA was performed to confirm the SAGE results. […] Previous reports have shown that σ expression is limited to epithelial cells.
Total RNA was prepared by CsCl gradient ultracentrifugation of guanidine isothiocyanate-lysed cells as described. […].

[2] = system: HCT116 cells; type: cell-based, human

| Compound | induction of σ expression ([1]; HCT116 cells, RNA 24 hours after treatment) | σ expression in other colorectal cancer cell lines ([1]; several other CRC cell lines, 24 hours) | effect on polyploidization of Ad-σ infected cells [2] |
| --- | --- | --- | --- |
| COc1cccc2c1C(=O)c1c(O)c3c(c(O)c1C2=O)C[C@@](O)(C(=O)CO)C[C@@H]3O[C@H]1C[C@H](N)[C@H](O)[C@H](C)O1 [adriamycin] | similarly induce σ expression | express σ at relatively high levels |  |
| CN[C@H]1CCc2cc(OC)c(OC)c(OC)c2-c2ccc(OC)c(=O)cc21 [colcemid] |  |  | did not prevent this polyploidization |
